Measurements from PubChem BioAssay AID1996.
Values after ≈ are worked out from the molar mass of the structure shown.

Conditions: buffer; pH 7.4; 200.0 µM

SMILES | solubility kinetic
Cc1c(-c2ccc(Cl)cc2)[n+](=O)c2c(n1[O-])CCCC2 | > 43.6 µg/mL
CCCC(=O)Nc1cc(OC)c(C(=O)OC)cc1Cl | > 42.9 µg/mL
COc1ccc2[nH]c(C(=O)Nc3cccc(C)n3)cc2c1 | 1.9 µg/mL (≈ 6.75 µM)
Cc1cccc(C(=O)NC2CCCCCCC2)c1 | 8.9 µg/mL (≈ 36.3 µM)
COC(Cn1cc(C)c(=O)[nH]c1=O)OC | 30.3 µg/mL (≈ 141 µM)
COc1cccc(NC(=O)C2CCCO2)c1 (centres undefined) | 30.5 µg/mL (≈ 138 µM)
O=C(CN1c2cccc3cccc(c23)S1(=O)=O)NCc1ccc(F)cc1 | 27.4 µg/mL (≈ 74 µM)
CN(CC(=O)N1CCc2ccccc2C1)c1ccccc1 | > 42.1 µg/mL
CCCN1CCN(CCCNC(=S)Nc2ccc(F)cc2)CC1 | 49 µg/mL (≈ 145 µM)
CC(=O)N1CCc2c(sc(NC(=O)Cc3ccc(F)cc3)c2C#N)C1 | < 0.3 µg/mL
c1ccc(CCCc2nc(-c3cccnc3)no2)cc1 | 30.5 µg/mL (≈ 115 µM)
O=C(O)c1cccc(Nc2c3ccccc3nc3ccccc23)c1 | 2.4 µg/mL (≈ 7.63 µM)
Cc1cc(O)ccc1Nc1nc(-c2cccnc2)cs1 | 1.8 µg/mL (≈ 6.35 µM)
Cc1c(C(=O)Nc2ccc(Nc3ccccc3)cc2)cccc1[N+](=O)[O-] | 1.3 µg/mL (≈ 3.74 µM)
Cc1csc2c(=O)sc(NC(=O)c3ccc(F)cc3Cl)nc12 | < 0.4 µg/mL
CC(Sc1ccccn1)C(=O)NC1CCCC1 (centres undefined) | > 37.6 µg/mL
C[N+](C)(C)CC(O)CC(=O)O.[Cl-] (centres undefined) | > 29.6 µg/mL
COc1ccc(CCC(=O)N2CCN(c3ccc(OC)cc3)CC2)cc1 | 41 µg/mL (≈ 116 µM)
CC(Sc1ccccn1)C(=O)Nc1ccc2c(c1)OCO2 (centres undefined) | 39 µg/mL (≈ 129 µM)
CN1CCC(=NOc2ccc([N+](=O)[O-])cc2)CC1 | > 37.4 µg/mL
CCOc1cc(C(=O)NC)cc(Br)c1OCc1ccccc1 | < 0.8 µg/mL
CN(CC(=O)Nc1ccccc1C(F)(F)F)C(=O)CSc1nnc(-c2ccncc2)n1C | > 69.7 µg/mL
COc1ccccc1S(=O)(=O)c1c(C)cc(C)[nH]c1=O | > 44 µg/mL
CCc1ccc[n+](-c2nc([O-])sc2C=O)c1 | > 35.1 µg/mL

SMILES | solubility kinetic
O=C1OC(CCl)CN1Cc1c(Cl)cccc1Cl (centres undefined) | 41.9 µg/mL (≈ 142 µM)
CN(C)/C=C/C(=O)c1ccc(Cl)s1 | > 32.4 µg/mL
CC(C)(C)c1ccc(C(=O)O/N=C(\N)c2ccccc2)cc1 | 1.1 µg/mL (≈ 3.71 µM)
Cc1noc(C)c1CSc1ccccc1C(=O)OC(C)C(N)=O (centres undefined) | 11.5 µg/mL (≈ 34.4 µM)
COC(=O)Cn1cnc2scc(-c3ccc(C)cc3)c2c1=O | > 47.2 µg/mL
CCOC(=O)c1cc([N+](=O)[O-])sc1N | 4.6 µg/mL (≈ 21.3 µM)
COC(=O)C1CCN(C(=O)COC(=O)/C=C/c2ccc(O)c(OC)c2)CC1 | > 56.6 µg/mL
CC1=Nc2cc([N+](=O)[O-])ccc2NC(C)(C)C1 | 17 µg/mL (≈ 72.9 µM)
Cc1cc(C(=O)OCC(=O)NCc2cccs2)ccc1[N+](=O)[O-] | 4.8 µg/mL (≈ 14.4 µM)
CCc1ccc(C(=O)Nc2nc(C)cs2)s1 | 32.9 µg/mL (≈ 130 µM)
Cc1cc(C)nc(/N=C(\NC(=O)C(C)(C)C)Nc2ccc(F)cc2)n1 | 0.5 µg/mL (≈ 1.46 µM)
N#CCNC(=O)C1CC(=O)N(CCc2ccc(F)cc2)C1 (centres undefined) | 39.7 µg/mL (≈ 137 µM)
O=C1ON=C(c2ccccc2)/C1=C/c1ccc(O)c(O)c1 | > 42.2 µg/mL
COc1ccc(Nc2ccc([N+](=O)[O-])cn2)cc1 | 3 µg/mL (≈ 12.2 µM)
CC(Oc1cccc(Br)c1)C(=O)Nc1cccc(S(=O)(=O)N2CCOCC2)c1 (centres undefined) | 16.2 µg/mL (≈ 34.5 µM)
CC(C)(C)c1csc(Sc2ncccc2[N+](=O)[O-])n1 | 1.7 µg/mL (≈ 5.76 µM)
CC1(C)CC(C(=O)Nc2ccccc2)C(=O)O1 (centres undefined) | > 35 µg/mL
CNC(=O)/C(C#N)=C/c1cc(C)n(-c2ccc(N3CCOCC3)cc2)c1C | 1.5 µg/mL (≈ 4.12 µM)
Cl.O=[N+]([O-])c1ccc(N2CCCNCC2)c2ncccc12 | 36.7 µg/mL
Cc1cc(CSCc2ccc(Cl)cc2)no1 | 2.2 µg/mL (≈ 8.67 µM)
O=C(NC1CCCCCCC1)c1cccs1 | 22.5 µg/mL (≈ 94.8 µM)
O=C(CCC(=O)Nc1ccc(F)cc1)N/N=C/c1cccnc1 | > 47.1 µg/mL
OC(c1ccccc1)c1nccc2ccccc12 (centres undefined) | > 35.3 µg/mL
CNc1nc2c(C)cccn2c(=O)c1C=Nc1ccc(OC)cc1 | 0.9 µg/mL (≈ 2.79 µM)

SMILES | solubility kinetic
CCCCCCC(=O)N(O)C1CC(=O)N(c2ccc(F)cc2)C1=O (centres undefined) | > 50.5 µg/mL
NC(=O)C1CCCN(CC(=O)N2CCN(c3ccccc3)CC2)C1 (centres undefined) | 48.4 µg/mL (≈ 146 µM)
CCOC(=O)C1=C(C)NC(C)=C(C(=O)OCC)C1C(=O)OCC(=O)NCCc1ccccc1 | > 68.8 µg/mL
COC(=O)c1ccc(C2NCCc3cc(OC)c(OC)cc32)cc1 (centres undefined) | > 49.1 µg/mL
O=C(O)/C=C/C(=O)Nc1ccc(C(=O)c2ccccc2)cc1 | > 44.3 µg/mL
CN1CCCN(Cc2ccccc2Br)CC1 | 35.3 µg/mL (≈ 125 µM)
COc1ccc(NC(=O)c2cnc(SC)nc2)cc1 | 8.4 µg/mL (≈ 30.5 µM)
O=C(NCCO)C(=O)Nc1cc2c3c(c1)CCN3C(=O)CC2 | > 45.5 µg/mL
Cc1ccc(C(=O)NCCCN2CCOCC2)c(C)c1 | > 41.5 µg/mL
CCN(CC(=O)Nc1ccc2c(c1)OCCO2)CC(=O)Nc1ccc(C)c([N+](=O)[O-])c1 | 7 µg/mL (≈ 16.3 µM)
O=C(Nc1ccc(OC(F)F)c(Cl)c1)c1ccccn1 | 1.4 µg/mL (≈ 4.69 µM)
COC(=O)C1=C(N)OC2=C(C(=O)CCC2)C1c1ccccc1OC (centres undefined) | 14.5 µg/mL (≈ 44 µM)
COc1ccc(CNC(=O)COC(=O)c2ccc(S(=O)(=O)N3CCOCC3)cc2)cc1 | 9.2 µg/mL (≈ 20.5 µM)
C#CCN1C(=O)S/C(=C\c2cc3c(cc2OC)OCO3)C1=O | 1.1 µg/mL (≈ 3.47 µM)
CCOC(=O)c1ccc2c(c1)N(CC#N)C(=O)C(C)(C)O2 | > 43.2 µg/mL
CC(CNC(=O)c1ccc(C#N)cc1)NC(=O)c1ccc(C#N)cc1 (centres undefined) | > 49.9 µg/mL
COCC(=O)OC/C(O)=C(\C#N)c1nc2ccccc2[nH]1 | > 43.1 µg/mL
CC(OC(=O)CCc1nc2ccccc2[nH]c1=O)c1ccccc1 (centres undefined) | 11.9 µg/mL (≈ 36.9 µM)
O=C(CCCN1C(=O)c2ccccc2C1=O)NCc1ccc(F)cc1 | 47.8 µg/mL (≈ 140 µM)
Cc1ccc(/C=C2\SC(=S)N(c3cccnc3)C2=O)cc1 | < 0.3 µg/mL
O=S(=O)(NCc1nc2ccccc2[nH]1)c1ccccc1 | > 43.1 µg/mL
CNCc1cc(Cl)cc(OC)c1OC(C)C.Cl | > 42 µg/mL
Cc1ccc(C(=O)O/N=C(\N)c2ccccn2)cc1 | 6.9 µg/mL (≈ 27 µM)
COc1ccc(OCCC(=O)OCC(=O)NCCC2=CCCCC2)cc1 | > 54.2 µg/mL

SMILES | solubility kinetic
COc1cc(NC(=O)Nc2cc(C)on2)cc(OC)c1OC | 37.8 µg/mL (≈ 123 µM)
Cc1ccc(NC(=S)Nc2ccccn2)cc1C | 0.4 µg/mL (≈ 1.55 µM)
Cc1cc(C)c(C(=O)N2CCC3(CC2)OCCO3)c(C)c1 | > 43.4 µg/mL
O=C(c1ccccc1)c1cc2c(cc1[N+](=O)[O-])OCCO2 | 7.3 µg/mL (≈ 25.6 µM)
Cc1ccc(SCCOCCN2CC(C)OC(C)C2)cc1.Cl (centres undefined) | 42.5 µg/mL
CCOC(=O)/C=C/C(=O)Nc1ccc(Oc2ccccc2)cc1 | 3.8 µg/mL (≈ 12.2 µM)
CCc1ccc(S(=O)(=O)NCc2cccnc2)cc1 | 31.8 µg/mL (≈ 115 µM)
COCCNC(=O)C(NC(=O)C1CCCCC1)C12CC3CC(CC(C3)C1)C2 (centres undefined) | 5.5 µg/mL (≈ 14.6 µM)
O=C(Nc1ccc(Cl)c(Cl)c1)Nc1ccccc1O | 8.5 µg/mL (≈ 28.6 µM)
C=CCc1ccccc1OCC(O)CN1C(=O)c2ccccc2C1=O (centres undefined) | 46 µg/mL (≈ 136 µM)
COCCn1c(C)c(C)c2c(NCCc3ccccc3)ncnc21 | 34.8 µg/mL (≈ 107 µM)
c1ccc(C(NCCNC(c2ccccc2)c2ccccc2)c2ccccc2)cc1 | 1.7 µg/mL (≈ 4.33 µM)
O=C(Nc1scc(-c2ccccc2)c1C(=O)O)c1ccccc1Cl | 52.6 µg/mL (≈ 147 µM)
NC(=O)c1ccc(NC(=O)Nc2ccc3c(c2)OCO3)cc1 | 3.8 µg/mL (≈ 12.7 µM)
Cc1cccc(C)c1N1C(=O)C(Cl)=C(N2CCCC2)C1=O | 31.2 µg/mL (≈ 102 µM)
Cc1ccc(CNC(=O)C(C)C2Sc3ccccc3NC2=O)cc1 (centres undefined) | 1.6 µg/mL (≈ 4.7 µM)
O=C1CCCN1CCCNC(=S)Nc1ccccc1 | 41 µg/mL (≈ 148 µM)
O=C(COC(=O)CCC(=O)c1ccc(F)cc1)NCCc1ccccc1 | 49.1 µg/mL (≈ 137 µM)
O=C1CC(N2CCSCC2)C(=O)N1c1ccc(Br)cc1 (centres undefined) | > 53.3 µg/mL
CN(C(=O)CSc1nc2ccccc2c(=O)n1-c1ccccc1F)C1CCS(=O)(=O)C1 (centres undefined) | 16.2 µg/mL (≈ 35.1 µM)
Cc1ccccc1NC(=O)c1cccc(NC(=O)c2ccccc2C(=O)O)c1 | 55.8 µg/mL (≈ 149 µM)
O=C(O)c1ccc(S(=O)(=O)N2CCCc3ccccc32)cc1 | > 47.6 µg/mL
CC(=O)C1=C(C)NC(SCC(N)=O)=C(C#N)C1c1ccco1 (centres undefined) | > 47.6 µg/mL
CC(C)CCCC(C)CCOC(=O)CN1CCCC1 (centres undefined) | 1.9 µg/mL (≈ 7.05 µM)

SMILES | solubility kinetic
CCc1ccccc1NC(=O)c1ccccc1N1C(=O)C2C3C=CC(C3)C2C1=O (centres undefined) | 43.4 µg/mL (≈ 112 µM)
COc1ccc(NC(=O)NCc2ccccn2)c(OC)c1 | 42.1 µg/mL (≈ 147 µM)
Cn1c(SCc2ccc(C#N)cc2)nnc1-c1ccncc1 | > 46.1 µg/mL
CC(=O)N/C(=C\c1ccccc1)C(=O)OCC(=O)NC1CCS(=O)(=O)C1 (centres undefined) | > 57.1 µg/mL
Cc1cc(C)c(NC(=O)COC(=O)C2CCC2)c(Cl)c1 | 42.2 µg/mL (≈ 143 µM)
CC(Nc1nc(=S)nc(Nc2ccc(F)cc2)[nH]1)c1ccccc1 (centres undefined) | 0.6 µg/mL (≈ 1.76 µM)
CCOC(=O)c1ccc(NC(=O)C2CC(O)CN2S(=O)(=O)c2ccc(C)cc2)cc1 (centres undefined) | > 64.9 µg/mL
O=S(=O)(NCc1cccnc1)c1ccc2ccccc2c1 | 41.3 µg/mL (≈ 138 µM)
COc1ccc(NC(=O)C2C3C=CC(C3)C2C(=O)O)cc1 (centres undefined) | > 43.1 µg/mL
C/C=C/C=C(/NC(=O)c1ccccc1)C(=O)Nc1ccccc1 | 2.3 µg/mL (≈ 7.51 µM)
CC(C)(C)c1ccc(S(=O)(=O)N2CCN(C3CCCC3)CC2)cc1 | < 0.4 µg/mL
Cc1sc2nc(CSC(C)C(=O)N3CCOCC3)[nH]c(=O)c2c1C (centres undefined) | > 55.1 µg/mL
COC(=O)c1ccc(NC(=O)c2cc(Cl)ccc2OC)cc1 | < 0.7 µg/mL
O=c1c2ccccc2ncn1-c1cccc(Br)c1 | 5.5 µg/mL (≈ 18.3 µM)
COC(=O)c1c(NC(C)=O)sc(C(=O)Nc2ccccc2F)c1C | < 0.4 µg/mL
COc1ccc(CNC/C=C/c2ccccc2)cc1.Cl | > 43.5 µg/mL
Cc1ccc(S(=O)(=O)NC2CC(C)(C)NC(C)(C)C2)cc1 | 40.5 µg/mL (≈ 130 µM)
O=C(NC(=S)Nc1ccc(CN2CCOCC2)cc1)c1cccc(F)c1 | 27 µg/mL (≈ 72.3 µM)
CN(C)c1c(N)c(=O)oc2ccccc12 | 27.3 µg/mL (≈ 134 µM)
COc1ccc(C(=O)O/N=C(/c2cccs2)C(C)(C)C)cc1 | 2.4 µg/mL (≈ 7.56 µM)
COc1cccc(CN2CCN(C(=O)Cc3ccccc3OC)CC2)c1 | > 53.2 µg/mL
CC(=O)Nc1c(O)c2cccc3c2n(c1=O)CCC3 | 36.5 µg/mL (≈ 141 µM)
CCc1ccc(NC(=O)N2CCCCCC2)cc1 | 31.9 µg/mL (≈ 129 µM)
